Holding throughout (type): in vivo
In one assay the test system is Alternaria solani. The assay is described as follows: Test G: tomato early blight, preventive spray on tomato seedlings. As to conditions: Alternaria solani, topical, 168 h, tomato seedlings sprayed to run-off, inoculated next day, rated after 48 h + 5 days, read-out: Percentage Disease Control Test G. From the text: General protocol for preparing test suspensions for Tests A-G: the test compounds were first dissolved in acetone in an amount equal to 11% of the final volume and then suspended at the desired concentration (in ppm) in acetone and purified water (50/50 mix by volume) containing 250 ppm of the surfactant Trem® 014 (polyhydric alcohol esters). The resulting test suspensions were then used in Tests A-G. Spraying a 200 ppm test suspension to the point of run-off on the test plants was the equivalent of a rate of 800 g/ha. The test suspension was sprayed to the point of run-off on tomato seedlings. The following day the seedlings were inoculated with a spore suspension of Alternaria solani (the causal agent of tomato early blight) and incubated in a saturated atmosphere at 27° C. for 48 h, and then moved to a growth chamber at 24° C. for 5 days, after which time disease ratings were visually made. Results for Tests A-G are given in Table A. In the Table, a rating of 100 indicates 100% disease control and a rating of 0 indicates no disease control (relative to the controls). A dash (-) indicates no test results. All results are for 200 ppm except where followed by an “*”, which indicates 40 ppm.

In assay [1] the test system is Puccinia recondita f. sp. tritici. Nature of the assay: Test C: wheat leaf rust, spray the day after inoculation of wheat seedlings.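 Also: Curative spray on infected wheat seedlings with visual rating 5 days later.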 The following applies: Puccinia recondita, 120 h, wheat seedlings inoculated, sprayed the following day, rated after 5 days, read-out: Percentage Disease Control Test C. From the text: General protocol for preparing test suspensions for Tests A-G: the test compounds were first dissolved in acetone in an amount equal to 11% of the final volume and then suspended at the desired concentration (in ppm) in acetone and purified water (50/50 mix by volume) containing 250 ppm of the surfactant Trem® 014 (polyhydric alcohol esters). The resulting test suspensions were then used in Tests A-G. Spraying a 200 ppm test suspension to the point of run-off on the test plants was the equivalent of a rate of 800 g/ha. Wheat seedlings were inoculated with a spore suspension of Puccinia recondita f. sp. tritici (the causal agent of wheat leaf rust) and incubated in a saturated atmosphere at 20° C. for 24 h. The following day, the test suspension was sprayed to the point of run-off on the wheat seedlings and then moved to a growth chamber at 20° C. for 5 days, after which time disease ratings were visually made. Results for Tests A-G are given in Table A. In the Table, a rating of 100 indicates 100% disease control and a rating of 0 indicates no disease control (relative to the controls). A dash (-) indicates no test results. All results are for 200 ppm except where followed by an “*”, which indicates 40 ppm.

The test system of the next assay is Septoria tritici. The assay is described as follows: Test E: wheat leaf blotch, preventive spray on wheat seedlings. The following applies: Zymoseptoria tritici, 456 h, wheat seedlings sprayed to run-off, inoculated next day, rated after 48 h + 19 days, read-out: Percentage Disease Control Test E. From the text:
General protocol for preparing test suspensions for Tests A-G: the test compounds were first dissolved in acetone in an amount equal to 11% of the final volume and then suspended at the desired concentration (in ppm) in acetone and purified water (50/50 mix by volume) containing 250 ppm of the surfactant Trem® 014 (polyhydric alcohol esters). The resulting test suspensions were then used in Tests A-G. Spraying a 200 ppm test suspension to the point of run-off on the test plants was the equivalent of a rate of 800 g/ha. The test suspension was sprayed to the point of run-off on wheat seedlings. The following day the seedlings were inoculated with a spore suspension of Septoria tritici (the causal agent of wheat leaf blotch) and incubated in a saturated atmosphere at 24° C. for 48 h, and then moved to a growth chamber at 20° C. for 19 days, after which time disease ratings were visually made. Results for Tests A-G are given in Table A. In the Table, a rating of 100 indicates 100% disease control and a rating of 0 indicates no disease control (relative to the controls). A dash (-) indicates no test results. All results are for 200 ppm except where followed by an “*”, which indicates 40 ppm.

In assay [2] the test system is Puccinia recondita f sp. tritici. Nature of the assay: Test B: wheat leaf rust, preventive spray on wheat seedlings. As to conditions: Puccinia recondita, 192 h, wheat seedlings sprayed to run-off, inoculated next day, rated after 24 h + 7 days, read-out: Percentage Disease Control Test B. The source says: General protocol for preparing test suspensions for Tests A-G: the test compounds were first dissolved in acetone in an amount equal to 11% of the final volume and then suspended at the desired concentration (in ppm) in acetone and purified water (50/50 mix by volume) containing 250 ppm of the surfactant Trem® 014 (polyhydric alcohol esters). The resulting test suspensions were then used in Tests A-G. Spraying a 200 ppm test suspension to the point of run-off on the test plants was the equivalent of a rate of 800 g/ha. The test suspension was sprayed to the point of run-off on wheat seedlings. The following day the seedlings were inoculated with a spore suspension of Puccinia recondita f sp. tritici (the causal agent of wheat leaf rust) and incubated in a saturated atmosphere at 20° C. for 24 h, and then moved to a growth chamber at 20° C. for 7 days, after which time disease ratings were visually made. Results for Tests A-G are given in Table A. In the Table, a rating of 100 indicates 100% disease control and a rating of 0 indicates no disease control (relative to the controls). A dash (-) indicates no test results. All results are for 200 ppm except where followed by an “*”, which indicates 40 ppm.

The test system of a further assay is Botrytis cinerea. Nature of the assay: Test F: tomato botrytis, preventive spray on tomato seedlings. The following applies: Botrytis cinerea, topical, 120 h, tomato seedlings sprayed to run-off, inoculated next day, rated after 48 h + 3 days, read-out: Percentage Disease Control Test F. From the text:
General protocol for preparing test suspensions for Tests A-G: the test compounds were first dissolved in acetone in an amount equal to 11% of the final volume and then suspended at the desired concentration (in ppm) in acetone and purified water (50/50 mix by volume) containing 250 ppm of the surfactant Trem® 014 (polyhydric alcohol esters). The resulting test suspensions were then used in Tests A-G. Spraying a 200 ppm test suspension to the point of run-off on the test plants was the equivalent of a rate of 800 g/ha. The test suspension was sprayed to the point of run-off on tomato seedlings. The following day the seedlings were inoculated with a spore suspension of Botrytis cinerea (the causal agent of tomato botrytis) and incubated in saturated atmosphere at 20° C. for 48 h, and then moved to a growth chamber at 27° C. for 3 additional days, after which time disease ratings were visually made. Results for Tests A-G are given in Table A. In the Table, a rating of 100 indicates 100% disease control and a rating of 0 indicates no disease control (relative to the controls). A dash (-) indicates no test results. All results are for 200 ppm except where followed by an “*”, which indicates 40 ppm.

The structures appear in SMILES notation.

Turning to `CC(=O)NCc1cc(-c2ccn(-c3ccc4c(c3)CCCO4)n2)ccc1Cl` [Compound 2, N-[[2-chloro-5-[1-(3,4-dihydro-2H-1-benzopyran-6-yl)-1H-pyrazol-3-yl]-phenyl]methyl]acetamide], the pest or weed control at 200 ppm with Alternaria solani stood at 53%; in assay [1], 88%; in assay [2] it was 100%; in the assay with Botrytis cinerea, 0%. Moreover, in the assay with Septoria tritici (40 ppm (value followed by *)), the pest or weed control at 40 ppm turned out to be 97%.
`O=CNCc1cc(-c2ccn(-c3ccc4c(c3)CCCO4)n2)ccc1Cl` [Compound 3, N-[[2-chloro-5-[1-(3,4-dihydro-2H-1-benzopyran-6-yl)-1H-pyrazol-3-yl]-phenyl]methyl]formamide]: the pest or weed control at 200 ppm worked out at 0% in the assay on Alternaria solani; 0% in assay [1]; 78% in the assay with Septoria tritici; 97% in assay [2]; 0% in the assay on Botrytis cinerea.
As for `CNC(=O)NCc1cc(-c2ccn(-c3ccc4c(c3)CCCO4)n2)ccc1Cl` [Compound 4, N-[[2-chloro-5-[1-(3,4-dihydro-2H-1-benzopyran-6-yl)-1H-pyrazol-3-yl]-phenyl]methyl]-N′-methylurea], the pest or weed control at 200 ppm with Alternaria solani was found to be 0%; in assay [1], 53%; in the assay with Septoria tritici, 0%; in assay [2] it was 97%; in the assay on Botrytis cinerea it was 0%.
As to `COC(=O)NCc1cc(-n2ccc(-c3ccc4c(c3)CCCO4)n2)ccc1Cl` [Compound 5, methyl N-[[2-chloro-5-[3-(3,4-dihydro-2H-1-benzopyran-6-yl)-1H-pyrazol-1-yl]phenyl]methyl]carbamate], the pest or weed control at 200 ppm turned out to be 0% with Alternaria solani; 100% in assay [1]; 100% in the assay on Septoria tritici; 100% in assay [2]; 98% with Botrytis cinerea.
`COC(=O)NCc1cc(-n2ccc(-c3ccc4c(c3)OCO4)n2)ccc1Cl` [Compound 6, methyl N-[[5-[3-(1,3-benzodioxol-5-yl)-1H-pyrazol-1-yl]-2-chlorophenyl]-methyl]carbamate]: the pest or weed control at 200 ppm in the assay on Alternaria solani came out at 95%; in assay [1], 100%; with Septoria tritici, 99%; in assay [2], 100%; in the assay with Botrytis cinerea, 91%.
As for `COC(=O)NCc1cc(-n2ccc(-c3ccc4c(c3)OCCO4)n2)ccc1Cl` [Compound 7, methyl N-[[2-chloro-5-[3-(2,3-dihydro-1,4-benzodioxin-6-yl)-1H-pyrazol-1-yl]-phenyl]methyl]carbamate], the pest or weed control at 200 ppm with Alternaria solani was 97%; in assay [1] it was 100%; in the assay on Septoria tritici, 100%; in assay [2] it was 100%; in the assay with Botrytis cinerea it was 98%.
`CC(=O)NCc1cc(-n2ccc(-c3ccc4c(c3)CCCO4)n2)ccc1Cl` [Compound 8, N-[[2-chloro-5-[3-(3,4-dihydro-2H-1-benzopyran-6-yl)-1H-pyrazol-1-yl]phenyl]methyl]acetamide]: the pest or weed control at 200 ppm in the assay with Alternaria solani was found to be 91%; in assay [1] it was 26%; in the assay on Septoria tritici, 98%; in assay [2] it was 100%; with Botrytis cinerea, 73%.
For `CNC(=O)NCc1cc(-n2ccc(-c3ccc4c(c3)CCCO4)n2)ccc1Cl` [Compound 9, N-[[2-chloro-5-[3-(3,4-dihydro-2H-1-benzopyran-6-yl)-1H-pyrazol-1-yl]phenyl]methyl]-N′-methylurea], in that order: 9%, 8%, 79%, 88% and 0%.
In the case of `COC(=O)NCc1cc(-n2ccc(-c3ccc4c(c3)CCCO4)n2)ccc1F` [Compound 11, methyl N-[[5-[3-(3,4-dihydro-2H-1-benzopyran-6-yl)-1H-pyrazol-1-yl]-2-fluorophenyl]methyl]carbamate], the pest or weed control at 200 ppm in the assay with Alternaria solani came out at 40%; in assay [1], 100%; with Septoria tritici, 100%; in assay [2], 100%; with Botrytis cinerea it was 0%.
Consider `COC(=O)NCc1cc(-c2ccn(-c3ccc4c(c3)CCCO4)n2)ccc1F` [Compound 12, methyl N-[[5-[1-(3,4-dihydro-2H-1-benzopyran-6-yl)-1H-pyrazol-3-yl]-2-fluorophenyl]methyl]carbamate], for which the pest or weed control at 200 ppm in the assay on Alternaria solani amounted to 88%; in assay [1] it was 100%; in the assay on Septoria tritici it was 100%; in assay [2], 100%; with Botrytis cinerea, 0%.
With `COC(=O)NCc1cc(-c2ccn(-c3ccc4c(c3)CCCO4)n2)ccc1C` [Compound 20, methyl N-[[5-[1-(3,4-dihydro-2H-1-benzopyran-6-yl)-1H-pyrazol-3-yl]-2-methylphenyl]methyl]carbamate], the pest or weed control at 200 ppm with Alternaria solani was 90%; in assay [1], 100%; with Septoria tritici, 100%; in assay [2], 100%; in the assay with Botrytis cinerea it was 95%.

The values above are taken from patent US8921360B2, “Heterobicycle-substituted azolyl benzene fungicides” (priority 2009, dated 2014).
